Test results from ChEMBL document CHEMBL1201862, “PubChem BioAssay data set” (2004).
Active and inactive are the calls of the source.

What was measured:
Type in all cases: functional
Hexokinase HKDC1 = biological target: T1, Hexokinase HKDC1 (Homo sapiens, UniProt Q2TB90); experiment: inhibition of HKDC1 glucose phosphorylation – biochemical, W721R variant, dose response (AID 504729)
T1 sequence (Q2TB90 whole entry): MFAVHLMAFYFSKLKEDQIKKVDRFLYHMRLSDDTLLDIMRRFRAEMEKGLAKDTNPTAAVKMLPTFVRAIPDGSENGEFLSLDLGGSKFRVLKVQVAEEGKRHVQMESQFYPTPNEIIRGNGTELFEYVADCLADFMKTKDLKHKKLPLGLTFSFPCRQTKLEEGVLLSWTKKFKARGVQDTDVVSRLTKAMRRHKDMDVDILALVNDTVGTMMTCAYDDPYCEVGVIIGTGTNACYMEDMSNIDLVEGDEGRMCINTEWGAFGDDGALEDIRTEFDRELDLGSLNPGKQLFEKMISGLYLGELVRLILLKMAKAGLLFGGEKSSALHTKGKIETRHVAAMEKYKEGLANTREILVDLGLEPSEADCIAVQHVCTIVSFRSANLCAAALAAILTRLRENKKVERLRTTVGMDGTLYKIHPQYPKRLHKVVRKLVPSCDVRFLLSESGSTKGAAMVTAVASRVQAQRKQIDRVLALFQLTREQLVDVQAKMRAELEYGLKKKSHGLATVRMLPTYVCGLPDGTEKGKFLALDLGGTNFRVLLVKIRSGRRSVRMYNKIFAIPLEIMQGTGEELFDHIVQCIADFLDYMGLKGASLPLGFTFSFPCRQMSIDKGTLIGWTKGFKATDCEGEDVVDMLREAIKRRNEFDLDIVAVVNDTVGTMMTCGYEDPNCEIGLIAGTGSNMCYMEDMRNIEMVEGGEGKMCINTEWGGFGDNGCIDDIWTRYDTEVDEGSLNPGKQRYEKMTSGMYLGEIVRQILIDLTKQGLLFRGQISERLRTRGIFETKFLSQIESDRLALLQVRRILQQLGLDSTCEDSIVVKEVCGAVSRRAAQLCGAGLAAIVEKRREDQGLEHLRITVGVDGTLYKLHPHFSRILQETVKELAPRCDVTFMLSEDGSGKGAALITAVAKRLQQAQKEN

[1] = biological target: T2, Replicative DNA helicase DnaB (Mycobacterium tuberculosis, UniProt P9WMR3); experiment: DnaB intein splicing inhibitors, dose response, biochemical, cell-free fluorescence (AID 449749)
T2 sequence (P9WMR3 whole entry): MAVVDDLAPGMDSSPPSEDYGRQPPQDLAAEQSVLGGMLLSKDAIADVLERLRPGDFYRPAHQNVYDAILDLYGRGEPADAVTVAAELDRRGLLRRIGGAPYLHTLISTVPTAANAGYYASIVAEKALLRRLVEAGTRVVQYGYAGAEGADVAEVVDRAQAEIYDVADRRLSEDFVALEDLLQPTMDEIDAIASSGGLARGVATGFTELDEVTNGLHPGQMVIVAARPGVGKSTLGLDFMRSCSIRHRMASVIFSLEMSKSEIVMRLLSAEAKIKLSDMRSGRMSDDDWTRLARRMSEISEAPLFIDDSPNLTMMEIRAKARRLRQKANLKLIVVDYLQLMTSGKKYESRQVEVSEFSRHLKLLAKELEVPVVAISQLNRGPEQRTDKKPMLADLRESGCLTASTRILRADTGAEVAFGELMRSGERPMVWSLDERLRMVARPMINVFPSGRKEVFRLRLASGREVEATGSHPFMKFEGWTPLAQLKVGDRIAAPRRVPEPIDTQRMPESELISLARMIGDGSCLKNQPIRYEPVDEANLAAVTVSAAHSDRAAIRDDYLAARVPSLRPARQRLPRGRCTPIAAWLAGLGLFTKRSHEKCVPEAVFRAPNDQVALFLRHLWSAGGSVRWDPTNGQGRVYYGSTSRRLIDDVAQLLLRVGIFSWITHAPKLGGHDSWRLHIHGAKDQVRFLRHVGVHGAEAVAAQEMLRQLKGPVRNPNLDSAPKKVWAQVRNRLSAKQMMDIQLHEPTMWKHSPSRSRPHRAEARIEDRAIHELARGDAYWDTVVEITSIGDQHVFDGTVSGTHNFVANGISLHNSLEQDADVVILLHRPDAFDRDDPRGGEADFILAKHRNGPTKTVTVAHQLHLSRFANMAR

Caspase-3 = biological target: T3, Caspase-3 (Homo sapiens, UniProt P42574);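 note: Dose-response selectivity test against caspase-3 for candidate inhibitors of sentrin-specific proteases (SENPs)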
T3 sequence (P42574 whole entry): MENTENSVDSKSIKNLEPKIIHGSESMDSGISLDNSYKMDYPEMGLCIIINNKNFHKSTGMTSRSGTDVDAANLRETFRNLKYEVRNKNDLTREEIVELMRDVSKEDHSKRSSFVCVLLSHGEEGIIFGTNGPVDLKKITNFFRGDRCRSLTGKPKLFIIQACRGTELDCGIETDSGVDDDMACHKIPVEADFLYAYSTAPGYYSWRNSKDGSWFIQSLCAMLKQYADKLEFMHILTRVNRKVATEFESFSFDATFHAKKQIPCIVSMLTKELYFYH

[2] = biological target: T4, Sentrin-specific protease 8 (Homo sapiens, UniProt Q96LD8);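 note: luminescence read-out of SENP8 inhibition, dose-response confirmation following an ultra-high-throughput screen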
T4 sequence (Q96LD8 whole entry): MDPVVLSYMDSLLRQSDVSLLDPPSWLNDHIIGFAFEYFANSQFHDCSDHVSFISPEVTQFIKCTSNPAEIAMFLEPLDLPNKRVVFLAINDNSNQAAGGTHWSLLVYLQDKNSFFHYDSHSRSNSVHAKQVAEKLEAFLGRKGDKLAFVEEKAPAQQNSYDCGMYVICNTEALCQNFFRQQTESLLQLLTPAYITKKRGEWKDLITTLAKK

| Structure (SMILES) | IC50 (Hexokinase HKDC1) | AC50 [1] | IC50 (Caspase-3) | IC50 [2] |
| --- | --- | --- | --- | --- |
| O=c1c2ccccc2nc(/C=C/c2cccnc2)n1Cc1ccccc1 | 3.2 µM (active) | 9.28 µM (active) | – | – |
| COC(=O)c1ccccc1NC1=C/C(=N\S(=O)(=O)c2ccc(C(=O)O)cc2)c2ccccc2C1=O | 3.84 µM (active) | > 380 µM (inconclusive) | – | – |
| O=C(O)c1ccc(N/N=C/c2ccc(OC(=O)c3ccccc3Cl)cc2)cc1 | – | – | 14.8 µM (active) | 2.05 µM (active) |
| NC(=O)C1CCN(C2=C(Cl)C(=O)c3ccccc3C2=O)CC1 | 25.9 µM (inactive) | 0.617 µM (active) | 7.35 µM (active) | 8.88 µM (active) |
